The source of these data is patent publication US5098613A, “Anti-inflammatory agents” (Eli Lilly and Company, priority 1990, dated 1992).

For this assay, the target named is T1, leukotriene B4 specific receptor on the membrane of human neutrophils (Homo sapiens, UniProt Q15722).
T1 construct: incubating neutrophils (1×10^7 cells) with 0.1-0.2 nM ^3 H-LTB4; endogenous in cells; host or cells: human peripheral blood neutrophils (buffy coats of two blood donors)
Briefly: Inhibition of Binding of ^3 H-LTB4 to Peripheral Human Neutrophils. The settings on record: for inhibition at 10 µM: read-out: LTB4 Binding Inhibition; for inhibition at 1 µM: drug concentration 10^-6 M. How it is done: The effectiveness of compounds to inhibit the binding of leukotriene B4 to a specific receptor on the membrane of human neutrophils was measured by using an adaptation of a radio-ligand binding assay developed by Goldman and Goetzl, J. Immunol., 129, 1600 (1982). Other investigators have developed similar assays (see, e.g., Kreisle, et al., J. Exp. Med., 157, 628 (1983) and Lin, et al., Prostaglandins, 28, 837 (1984)).
Cells used in the assay were isolated by standard techniques of centrifugation on Ficol-Hypaque, dextran 70 sedimentation and hypotonic lysis. The following procedure was used. Freshly-prepared buffy coat layers from two individuals were obtained from a local blood donor center. The cells were mixed and diluted to 484 ml. with phosphate buffered saline containing heparin (10 units/ml) and heat-inactivated calf serum (5%). This was divided into 20 ml. aliquots and the aliquots layered on top of Ficoll-Paque (12 ml.). The material was then centrifuged at 500 g. for 40 minutes at room temperature. The resulting upper layer of platelets and mononuclear cells was discarded. The lower layer containing erythrocytes and neutrophils was retained. Buffer was added (1 ml. per 4 ml. of lower layer) and the suspension mixed. For each milliliter of this mixture, 0.33 ml. of 6% Macrodex was added. After stirring, the cels were allowed to sediment for 1 hour at 37° C. The resulting erythrocyte pellet was discarded and the neutrophil enriched supernatant fluid centrifuged at 500 g. for 10 minutes at 4° C. Erythrocytes still present in this cell pellet were lysed by incubating the cells with 5-8 ml. ice-cold distilled water for 30-45 seconds. Subsequently, the volume was made up to 50 ml. by addition of ice-cold buffer and the cells resuspended. The suspension was then centrifuged at 300 g. for 10 minutes at 4° C. The cells were finally resuspended at a cell density of 2×10^7 cells/ml in the assay buffer. This buffer Consisted of Hanks' balanced salt solution and 0.1% ovalbumin (pH 7.3).
The radio-ligand binding assay was conducted by incubating neutrophils (1×10^7 cells) with 0.1-0.2 nM ^3 H-LTB4 (sp. act. 150-220 Curies/mmol) and test compound (1×10^-5 M and 1×10^-6 M) for 10 minutes at 4° C. The amount of bound ^3 H-LTB4 was then measured and compared with the amount bound in the absence of test compound. The assay was carried out in microcentrifuge tubes by adding first 10 μl test compound dissolved in DMSO, followed by adding 20 μl ^3 H-LTB4 diluted in assay buffer, and finally adding 500 μl of the cell suspension pension. At the end of the 10 minutes incubation, 300 μl of a mixture of dibutyl and dinonyl phthalate (7:2) were added and the tubes centrifuged for 2 minutes in a microcentrifuge. The radioactivity bound to the cell pellet was measured by scintillation spectroscopy. Appropriate corrections for nonspecific bonding of ^3 H-LTB4 were made.

The mark [1] stands for this setting: drug concentration 10^-5 M, 4° C., 10 minutes.

The structures appear in SMILES notation. Where a name gives a salt, the structure may show the parent alone. Read-outs that look alike come from different tables or passages of the source.

T1 sequence (Q15722 whole entry): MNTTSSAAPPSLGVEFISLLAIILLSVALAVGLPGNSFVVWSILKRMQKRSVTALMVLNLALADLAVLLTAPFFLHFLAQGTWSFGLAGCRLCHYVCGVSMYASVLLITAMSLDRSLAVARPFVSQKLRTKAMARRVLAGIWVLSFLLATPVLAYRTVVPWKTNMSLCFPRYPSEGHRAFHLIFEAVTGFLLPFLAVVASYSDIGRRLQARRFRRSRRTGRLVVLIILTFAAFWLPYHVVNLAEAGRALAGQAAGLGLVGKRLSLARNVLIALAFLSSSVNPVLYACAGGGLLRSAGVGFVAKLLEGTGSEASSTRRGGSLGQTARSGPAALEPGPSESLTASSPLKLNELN

Consider `C=CCc1cc(C(C)=O)c(O)cc1OCCCC` [Example 40, 4-Butoxy-2-hydroxy-5-allylacetophenone], for which the inhibition at 10 µM under setting [1] is 31%. Besides, the inhibition at 1 µM (4° C., 10 minutes) came to 8%.

Consider `C=CCc1cc(C(C)=O)c(O)cc1OCCCCCC(=O)N(C)C` [Example 97, 6-(4-Acetyl-5-hydroxy-2-allylphenoxy)-N,N-dimethylhexanamide], for which the inhibition at 10 µM under setting [1] came to 91%. Further, the inhibition at 1 µM (4° C., 10 minutes) was 53%.

As to `C=CCc1cc(C(C)=O)c(O)cc1OCc1cccc(CC#N)c1` [Example 60, 3-[(4-Acetyl-5-hydroxy-2-allylphenoxy)-methyl]benzeneacetonitrile], the inhibition at 10 µM under setting [1] was found to be 12%. Under “4° C., 10 minutes”, the inhibition at 1 µM amounted to 6%.

On to `C=CCc1cc(C(C)=O)c(O)cc1OCCCCc1nnnn1C` [Example 119, 2-Hydroxy-4-[4-(1-methyl-lH-tetrazol-5-yl)-butoxy]-5-allylacetophenone], for which the inhibition at 10 µM under setting [1] amounted to 57%. The inhibition at 1 µM (4° C., 10 minutes) came out at 13%.

For `C=CCc1cc(C(C)=O)c(O)cc1OCCCCc1nnn(C)n1` [Example 120, 2-Hydroxy-4-[4-(2-methyl-2H-tetrazol5-yl)butoxy]-5-allylacetophenone], under setting [1], the inhibition at 10 µM was 97%. For the same compound, the inhibition at 1 µM (4° C., 10 minutes) is 55%.

Regarding `CCc1cc(C(C)=O)c(O)cc1OCCCCCCC(=O)Nc1nnn[nH]1` [Example 145, 7-(4-Acetyl-2-ethyl-5-hydroxyphenoxy)-N-1H-tetrazol-5-ylheptanamide], the inhibition at 10 µM under setting [1] came out at 101%. Besides, the inhibition at 1 µM (4° C., 10 minutes) worked out at 85%.

For `CCCc1cc(C(C)=O)c(O)cc1OCCCCN` [Example 74, 4-(4-Aminobutoxy)-2-hydroxy-5-propylacetophenone hydrochloride], under setting [1], the inhibition at 10 µM came to 0%. The inhibition at 1 µM (4° C., 10 minutes) worked out at 0%.

On to `C=CCc1cc(C(C)=O)c(O)cc1OCCCCCCS(C)(=O)=O` [Example 80, 2-hydroxy-4-[6-(methylsulfonyl)-hexyloxy]-5-allylacetophenone], for which the inhibition at 10 µM worked out at 100%. The inhibition at 1 µM (4° C., 10 minutes) was 62%.

On to `CCCCCc1cc(C(C)=O)c(O)cc1OCCCCC#N` [Example 31, 5-(4-Acetyl-5-hydroxy-2-pentylphenoxy)-pentanenitrile], for which the inhibition at 10 µM under setting [1] is 30%. In addition, for the setting “4° C., 10 minutes”, the inhibition at 1 µM was 14%.

For the compound `C=CCc1cc(C(C)=O)c(O)cc1OC` [Example 42, 2-Hydroxy-4-methoxy-5-allylacetophenone], the inhibition at 10 µM under setting [1] was 6%. Also, the inhibition at 1 µM (4° C., 10 minutes) was 12%.

As for `C=CCc1cc(C(C)=O)c(O)cc1OCCCCCC` [Example 39, 4-(Hexyloxy)-2-hydroxy-5-allylacetophenone], the inhibition at 10 µM under setting [1] was 50%. For the same compound, the inhibition at 1 µM (4° C., 10 minutes) turned out to be 9%.

On to `CCc1cc(C(C)=O)c(O)cc1OCc1ccc(C(=O)O)c(O)c1` [Example 148, 4-[(4-Acetyl-2-ethyl-5-hydroxyphenoxy)methyl]-2-hydroxybenzoic acid], for which the inhibition at 10 µM under setting [1] was 44%. Besides, the inhibition at 1 µM (4° C., 10 minutes) amounted to 14%.

Turning to `CCc1cc(C(=O)c2ccc(C(=O)O)cc2)c(O)cc1OCCCCC#N` [Example 91, 4[4-(4-Cyanobutoxy)-5-ethyl-2-hydroxybenzoyl]benzoic acid], the inhibition at 10 µM under setting [1] turned out to be 26%. Where the note is “4° C., 10 minutes”, the inhibition at 1 µM is 20%.

Turning to `C=CCc1cc(C(C)=O)c(O)cc1OCc1ccc(CC#N)cc1` [Example 71, 4-[(4-Acetyl-5-hydroxy-2-allylphenoxy)-methyl]benzeneacetonitrile], the inhibition at 10 µM under setting [1] amounted to 30%. Further, the inhibition at 1 µM (4° C., 10 minutes) is 17%.

Take `C=CCc1cc(C(C)=O)c(O)cc1OCCCC#N` [Example 26, 4-(4-Acetyl-5-hydroxy-2-allylphenoxy)-butanenitrile]: the inhibition at 10 µM under setting [1] amounted to 46%. Also, the inhibition at 1 µM (4° C., 10 minutes) was found to be 5%.

As for `CCc1cc(C(C)=O)c(O)cc1OCCCC(C)(C)C#N` [Example 133, 5-(4-Acetyl-2ethyl-5-hydroxyphenoxy)-2,2-dimethylpentanitrile], under setting [1], the inhibition at 10 µM worked out at 89%. For the same compound, the inhibition at 1 µM (4° C., 10 minutes) came to 48%.

Consider `CC(=O)c1cc(C)c(OCCCCC#N)cc1O` [Example 28, 5-(4-Acetyl-2-methyl-5-hydroxyphenoxy)-pentanenitrile], for which the inhibition at 10 µM under setting [1] came out at 77%. The inhibition at 1 µM (4° C., 10 minutes) is 32%.

As for `CCc1cc(C(C)=O)c(O)cc1OCCCCCCC(=O)NC` [Example 99, 7-(-Acetyl-2-ethyl-5-hydroxyphenoxy)N-methylheptanamide], the inhibition at 10 µM came to 97%. Further, for the setting “4° C., 10 minutes”, the inhibition at 1 µM was determined as 54%.

For `C=CCc1cc(C(C)=O)c(O)cc1OCCCCC#N` [Example 139, 5-(4-Acetyl-5-hydroxy-2-allylphenoxy)pentanenitrile], the inhibition at 10 µM is 92%. Also, the inhibition at 1 µM (4° C., 10 minutes) is 53%.

As to `C=CCc1cc(C(C)=O)c(O)cc1OCCCCCC(=O)OC` [Example 94, 6-(4-Acetyl-5-hydroxy-2-allylphenoxy)hexanoic acid, methyl ester], the inhibition at 10 µM under setting [1] was found to be 106%. Also, the inhibition at 1 µM (4° C., 10 minutes) came to 64%.

Consider `CC(=O)c1cc(C=O)c(OCCCCC#N)cc1O` [Example 18, 5-(4-Acetyl-5-hydroxy-2-formylphenoxy)-pentanenitrile], for which the inhibition at 10 µM under setting [1] was 5%. The inhibition at 1 µM (4° C., 10 minutes) came out at 3%.

As for `CCOC(=O)c1ccc(COc2cc(O)c(C(C)=O)cc2CC)cc1O` [Example 147, 4-[(4-Acetyl-2-ethyl-5-hydroxyphenoxy)methyl]-2-hydroxybenzoic acid, ethyl ester], the inhibition at 10 µM under setting [1] turned out to be 2%. Besides, under “4° C., 10 minutes”, the inhibition at 1 µM amounted to 3%.

As for `CCc1cc(C(C)=O)c(O)cc1OCCCCCC(C)(C)C(N)=O` [Example 101, 7-(4-Acetyl-2-ethyl-5-hydroxyphenoxy)-2,2-methylheptanamide], the inhibition at 10 µM under setting [1] worked out at 101%. Moreover, under “4° C., 10 minutes”, the inhibition at 1 µM came to 82%. The inhibition at 0.1 µM (drug concentration 10^-7 M, 4° C., 10 minutes) was 45%.

`C=CCc1cc(C(C)=O)c(O)cc1OCCCCCCC#N` [Example 24, 7-(4-Acetyl-5-hydroxy-2-allylphenoxy)-]: under setting [1], the inhibition at 10 µM came out at 94%. Also, the inhibition at 1 µM (4° C., 10 minutes) stood at 59%.

For the compound `CCc1cc(C(=O)CCCC(=O)O)c(O)cc1OCCCCC#N` [Example 88, 5-[(4-Cyanobutoxy)-5-ethyl-2-hydroxybenzene]-5-oxopentanoic acid], the inhibition at 10 µM under setting [1] amounted to 19%. Further, the inhibition at 1 µM (4° C., 10 minutes) is -1%.

As for `CCc1cc(C(C)=O)c(O)cc1OCCCCCN` [Example 137, 1-{4-[(5-Aminopentyl)oxy]-5-ethyl-2-hydroxyphenyl}ethanone], the inhibition at 10 µM under setting [1] was determined as 43%. For the same compound, where the note is “4° C., 10 minutes”, the inhibition at 1 µM was determined as 22%.

For the compound `CCc1cc(C(C)=O)c(O)cc1OCc1cccc(C(F)(F)F)c1` [Example 58, 5-Ethyl-2-hydroxy-4-(3-trifluoromethyl-benzyloxy)acetophenone], under setting [1], the inhibition at 10 µM amounted to 67%. The inhibition at 1 µM (4° C., 10 minutes) was found to be 22%.

As for `CCc1cc(C(C)=O)c(O)cc1OCCCCc1nnnn1CC(=O)O` [Example 144, 5-[4-(4-Acetyl-2-ethyl-5-hydroxyphenoxy)-butyl]-1H-tetrazole-1-acetic acid], the inhibition at 10 µM under setting [1] was 63%. The inhibition at 1 µM (4° C., 10 minutes) came out at 20%.

For `CCCc1cc(C(C)=O)c(O)cc1OCCCCC#N` [Example 118, 5-(4-Acetyl-5-hydroxy-2-propylphenoxy)-pentanenitrile], the inhibition at 10 µM under setting [1] was 83%. Besides, for the setting “4° C., 10 minutes”, the inhibition at 1 µM was 38%.
